Source: patent US9040712B2, “Thiadiazole analogs thereof and methods for treating SMN-deficiency-related-conditions” (NOVARTIS AG, priority 2013, dated 2015)

tested on: SMN protein; experiment: cellular SMN ELISA (SMN protein elevation); type: cell-based; conditions: myoblast cell line derived from SMNdelta7 mouse model; 24 hours compound treatment; concentration range 100 pM-10 uM
Description: A cellular SMN ELISA was used to measure the effects of low molecular weight compounds on SMN protein elevation. Cells from a myoblast cell line derived from the SMNdelta7 mouse model (kind gift from Steve Burden, NYU) were seeded into a 384-well plate at a density of 3000 cells/well and treated with compounds for 24 hours. ELISA capture plates were prepared by coating 384-well plates (Immulon 4HBX) with 0.5 ug/mL of anti-SMN mAb (BD Science, Catalog number 610647) at 4° C. overnight. The plates were washed 5 times with 110 uL of PBS-Tween (0.05% Tween-20, PBST), blocked with 100 uL of 1% BSA in PBST for 2 hours and washed (5 times) with 100 uL of PBST. After 24 hours of compound treatment cells were lysed in a modified RIPA-buffer, on ice for 1 hour. 20 uL of lysate and 20 uL of 1% BSA were then added to the ELISA capture plates and incubated at 4° C. overnight. Plates were washed (5 times) with PBST and then incubated with 1:100 dilution of primary rabbit anti-SMN polyclonal antibody (Santa cruz, Catalog number SC-15320) at room temperature for 1 hour and subsequently washed (5 times) with 110 uL of PBST. This was followed by addition of 1:100 Goat anti-Rabbit IgG-HRP linked (Cell Signaling, Catalog number 7074) secondary antibody for 1 hour. Plates were then washed with PBST and incubated with 40 uL TMB substrate (Cell Signaling, Catalog number 7004L) at room temperature for 1-10 minutes with shaking. The reaction was stopped by addition of 40 uL of stop solution (Cell signaling, Catalog number 7002L) and absorption was measured at 450 nm. Data was reported as fold activation over DMSO control and EC50. ELISA assay condition: compound concentration range 100 pM-10 uM.

Which results are given for `COc1cc(-n2cccn2)ccc1-c1nnc(N(C)C2CC(C)(C)NC(C)(C)C2)s1` [Example 1, 5-(2-methoxy-4-(1H-pyrazol-1-yl)phenyl)-N-methyl-N-(2,2,6,6-tetramethylpiperidin-4-yl)-1,3,4-thiadiazol-2-amine]?
EC50: 63 nM; SMN Activity Fold (fold activation over DMSO control): 2.45 fold

`CN(c1nnc(-c2ccc3cc(O)ccc3c2)s1)C1CC(C)(C)NC(C)(C)C1` [Example 2, 6-(5-(Methyl(2,2,6,6-tetramethylpiperidin-4-yl)amino)-1,3,4-thiadiazol-2-yl)naphthalen-2-ol] was tested. Which EC50 did it give?
The EC50 was 436 nM.

What about the “SMN Activity Fold (fold activation over DMSO control)” value (from here on “SMN Activity Fold”) of the same molecule?
The value was 2.66 fold.

Which EC50 does the source give for `COc1nc2ccccc2cc1-c1nnc(N(C)C2CC(C)(C)NC(C)(C)C2)s1` [Example 3, 5-(2-Methoxyquinolin-3-yl)-N-methyl-N-(2,2,6,6-tetramethylpiperidin-4-yl)-1,3,4-thiadiazol-2-amine] here?
Its EC50 is 337 nM.

And the “SMN Activity Fold” value?
The value was 2.67 fold.

Which EC50 does the source give for `COc1cc2ccccc2cc1-c1nnc(N(C)C2CC(C)(C)NC(C)(C)C2)s1` [Example 4, 5-(3-Methoxynaphthalen-2-yl)-N-methyl-N-(2,2,6,6-tetramethylpiperidin-4-yl)-1,3,4-thiadiazol-2-amine] here?
Its EC50 is 887 nM.

What about the “SMN Activity Fold” value of the same molecule?
Its value is 2.48 fold.

What does the source list for `COc1cc(-n2cccn2)ccc1-c1nnc(NC2CC(C)(C)N(C)C(C)(C)C2)s1` [Example 5, 5-(2-Methoxy-4-(1H-pyrazol-1-yl)phenyl)-N-(1,2,2,6,6-pentamethylpiperidin-4-yl)-1,3,4-thiadiazol-2-amine]?
EC50: 87 nM; SMN Activity Fold (fold activation over DMSO control): 2.88 fold

For `COc1cc(-c2cnn(C)c2)ccc1-c1nnc(N(C)C2CC(C)(C)NC(C)(C)C2)s1` [Example 6, 5-(2-Methoxy-4-(1-methyl-1H-pyrazol-4-yl)phenyl)-N-methyl-N-(2,2,6,6-tetramethylpiperidin-4-yl)-1,3,4-thiadiazol-2-amine], which EC50 is on record?
Its EC50 is 44 nM.

And the “SMN Activity Fold” value?
The value was 2.49 fold.

For `COc1cc(-c2cn[nH]c2)ccc1-c1nnc(N(C)C2CC(C)(C)NC(C)(C)C2)s1` [Example 7, 5-(2-Methoxy-4-(1H-pyrazol-4-yl)phenyl)-N-methyl-N-(2,2,6,6-tetramethylpiperidin-4-yl)-1,3,4-thiadiazol-2-amine], which EC50 is on record?
Its EC50 is 38 nM.

And the “SMN Activity Fold” value?
Its value is 2.86 fold.

How did the EC50 turn out when `COc1cc(-c2ccn(C)c(=O)c2)ccc1-c1nnc(N(C)C2CC(C)(C)NC(C)(C)C2)s1` [Example 8, 4-(3-Methoxy-4-(5-(methyl(2,2,6,6-tetramethyl-piperidin-4-yl)amino)-1,3,4-thiadiazol-2-yl)phenyl)-1-methylpyridin-2(1H)-one] was run?
The EC50 was 134 nM.

What about the “SMN Activity Fold” value of the same molecule?
Its value is 3.20 fold.

`COc1cc(-c2ccc(O)nc2)ccc1-c1nnc(N(C)C2CC(C)(C)NC(C)(C)C2)s1` [Example 9, 5-(3-Methoxy-4-(5-(methyl(2,2,6,6-tetramethyl-piperidin-4-yl)amino)-1,3,4-thiadiazol-2-yl)phenyl)pyridin-2-ol] was tested. Which EC50 did it give?
Its EC50 is 784 nM.

And the “SMN Activity Fold” value?
Its value is 2.46 fold.

How did the EC50 turn out when `COc1cc(-c2ccc(=O)n(C)c2)ccc1-c1nnc(N(C)C2CC(C)(C)NC(C)(C)C2)s1` [Example 10, 5-(3-Methoxy-4-(5-(methyl(2,2,6,6-tetramethyl-piperidin-4-yl)amino)-1,3,4-thiadiazol-2-yl)phenyl)-1-methylpyridin-2(1H)-one] was run?
The EC50 was 79 nM.

What about the “SMN Activity Fold” value of the same molecule?
The value was 2.65 fold.

What does the source list for `Cc1cc(-c2cnn(C)c2)ccc1-c1nnc(N(C)C2CC(C)(C)NC(C)(C)C2)s1` [Example 11, N-Methyl-5-(2-methyl-4-(1-methyl-1H-pyrazol-4-yl)phenyl)-N-(2,2,6,6-tetramethylpiperidin-4-yl)-1,3,4-thiadiazol-2-amine]?
EC50: 684 nM; SMN Activity Fold (fold activation over DMSO control): 2.84 fold
